What all share (assay type): cell-based, human
The test system of series [1] is nitric oxide synthase-3 (NOS-3). In words: NOS-3 expression, Western blot. Conditions: PNET2 cells induced to express AD7c-NTP; relative to PDGF-stimulated cultures. The source says:
Standard Western blot assays wew used to measure cellular levels of p53, Bcl-2, p21/Waf1, phospho-tau, tau, c-fos, NTP, and activated (phosphorylated) forms of Erk mitogen activated protein (MAP) kinase, amino-terminal c-jun-activated kinase (pJNK), and p38/HOG1. Immunoprecipitation followed by Western blot analysis was used to measure p85 subunit associated with IRS1. For Western blot analysis of p53 Bcl-2, phospho-tau, tau, c-fos, and NTP, the cells were lysed in ice cold radioimmunoprecipitation assay (RIPA) buffer supplemented with protease and phosphatase inhibitors. For the immunoprecipitation studies, Western blot analysis of phospho-Erk, pJNK, and p38, and the PI3 kinase assays, the cells were harvested in Triton lysis buffer supplemented with protease and phosphatase inhibitors. Protein concentrations were measured using the BCA assay (Pierce, Rockford, Ill.). Samples containing 60 μg of protein were fractionated by sodium dodecyl sulfate polyacrylamide gel electrophoresis (SDS-PAGE), then transferred to PVDF membranes, and analyzed by Western immunoblotting. Immunoreactivity was detected with horseradish peroxidase conjugated secondary IgG and PicoWest enhanced chemiluminescence reagents (Pierce Chemical Company, Rockford, Ill.). CAT activity was measured using known methods. […]
In general terms: A western blot detects proteins with antibodies after separation by electrophoresis.

Series [2] concerns IRS-1-associated PI3 kinase. In words: IRS-1-associated PI3 kinase activity. The note with it: 3 mM IPTG-induced cultures, 30 minutes of stimulation. As to the method: The cells were harvested in Triton lysis buffer supplemented with protease and phosphatase inhibitors. Total PI3K was immunoprecipitated from 500 μg protein in cell lysates using rabbit polyclonal antibodies to the p85 subunit of PI3K and Protein A sepharose. The immunoprecipitants were incubated for 5 minutes at room temperature with 10 μg of sonicated phosphatidylinositol in HEPES buffer (200 mM HEPES, 4 mM EGTA, 4 mM sodium phosphate, pH 7.0). Reactions were initiated by the addition of 5 μCi [α^32p] ATP, 15 mM MgCl2, 150 mM ATP, 1.5 mM Tris-HCl, pH 7.4, and 15 mM NaCl. […] Phosphorylated lipids were analyzed by thin layer chromatography using gel plates pre-coated with 1% oxalate (Merck, White House Station, N.J.). PI3K activity was measured with a phosphorimager.
PI3 kinase is an important mediator of neuronal survival. […] Since insulin and IGF-1 can activate PI3 kinase through the insulin-receptor substrate-1 (IRS-1) or through IRS-1-independent pathways, both IRS1-associated PI3 kinase and total PI3 kinase activities were measured. […] Levels of PI3 kinase activity were measured in anti-phospho-tyrosine (PY) immunoprecipitates. […] Similarly, PI3 kinase activity was readily detected in the PY immunoprecipitates prepared with cells stimulated with insulin or PDGF.

The subject of series [3] is PNET2 cells induced to express AD7c-NTP. In words: Crystal violet viability assay. Conditions: 3 mM IPTG-induced AD7c-NTP; relative to un-induced FCS-stimulated and IPTG-induced NGF or PDGF stimulated cultures. As to the method:
(§1) To examine the effects of different growth factors on AD7c-NTP expression (and over-expression), the cells were serum-starved for 16 hours, after which IPTG (1-5 mM) was added to the medium. Four hours later, the cells were stimulated with insulin (50 nM), IGF-1 (5 ng/ml), NGF ([…]), or platelet-derived growth factor (PDGF; 5 ng/ml) for 24-72 hours. The cells were analyzed for morphological changes, viability, AD7c-NTP immunoreactivity, and expression of pro-apoptosis genes, survival genes, and phospho-tau.
Viability was measured by a standard crystal violet assay. Crystal violet dye labels only viable cells. The assays were performed with cells seeded into 96-well plates at a density of 2×10^4 cells/well. The absorbances were measured using a Spectracount plate reader (Packard, Meriden, Conn.). The crystal violet absorbances increased linearly with cell density between 10^4 and 5×10^5 cells/well.
Cells were serum-starved for 24 hours. However, since several hours of IPTG stimulation were required to induce AD7c-NTP gene expression or CAT activity, IPTG (3 mM) was added to the cultures after 16 hours of serum-starvation, i.e. 8 hours prior to growth factor stimulation. […]
Increased cell loss associated with insulin-stimulation and AD7c-NTP over-expression Cell viability was quantified using the microculture Crystal violet assay with cells seeded into 96-well plates. […]

The test system is the same in series [4]. In words: Cell morphology by phase contrast microscopy. Conditions: IPTG-induced AD7c-NTP; insulin 50 nM, IGF-1 5 ng/ml, NGF 2.5 ng/ml, PDGF 5 ng/ml; 24-48 hours. The procedure: as §1
Cells were serum-starved for 24 hours. However, since several hours of IPTG stimulation were required to induce AD7c-NTP gene expression or CAT activity, IPTG (3 mM) was added to the cultures after 16 hours of serum-starvation, i.e. 8 hours prior to growth factor stimulation. The cells were stimulated with insulin (50 nM), IGF-1 (5 ng/ml), NGF (2.5 ng/ml), or PDGF (5 ng/ml) and examined by phase contrast microscopy 24-48 hours later. PNET2 cells could be maintained in serum-free medium for 5 to 7 days with insulin, IGF-1, NGF, or PDGF as the only growth stimulus. In addition, each of these growth factors supports DNA synthesis and promotes modest outgrowth of multipolar neurites in PNET2 cells.

Consider “insulin: Human insulin purchased from Novagen”, for which the NOS-3 level result in series [1] was “increased levels”. Besides, in series [2], the “IRS-1-associated PI3 kinase activity” value was “sharply increased”. The “cell density (crystal violet)” value in series [3] is on record as “significantly reduced cell densities”. The cell morphology result in series [4] was “neurite retraction, cell rounding and increased cell death”.

The record behind these values is patent US7319094B2, “Increased and sustained in vivo gene expression using a nucleic acid, histone and amphipathic compound composition” (Rhode Island Hospital, priority 2001, dated 2008).
